System: spores of Aspergillus niger and Aspergillus versicolor
Assay: ISO 846 Method B: determination of the fungistatic activity of films, complete nutrient medium with carbon source
Type: cell-based
Conditions: summary of ISO 846 loading tests (methods A and B)
Description: Commercially conventional dispersions based on poly(vinyl alcohol)-stabilized poly(dibutyl maleinate-co-vinyl acetate) were, where necessary, set to the required pH using 10% strength sodium hydroxide solution and subsequently finished with fungicide. In addition, to the dispersion was added either a 1% strength ethanolic solution of the fungicide or an aqueous suspension which had been prepared by weighing out exactly 500 mg of fungicide into a 50 ml measuring flask and subsequently making up to 50 ml with deionized water to the calibration mark. After addition, the substance was distributed well in the dispersion and approximately 200 μm thick films were produced using a drawing frame with wet application of 400 μm.
The action of these films on microorganisms was determined using the method ISO 846.
The samples were applied to a complete nutrient medium (with carbon source) and inoculated with a spore suspension of various fungi. […] Method B is intended to reflect the situation of a surface contamination of the sample in practice (such as dirt or organic deposits).
The inoculum in all the determinations was performed using spores of Aspergillus niger and Aspergillus versicolor.
The samples, after expiry of the incubation period of 28 days, were assessed in methods A and B using the following rating key in accordance with ISO 846 (a, b=individual results of duplicate determination).

Oc1ccc(/C=C/c2cc(O)cc(O)c2)cc1 [trans-resveratrol, trans-3,5,4′-trihydroxystilbene]
fungicidal activity in polymer dispersions made into films: exhibits fungicidal activity
